Laboratory results: ChEMBL document CHEMBL1759980, “Aza-annulation on the 16-dehydropregnenolone, via tandem intermolecular aldol process and intramolecular Michael addition” (Bioorg Med Chem Lett, 2011)

Tests used:
Dipeptidyl peptidase 4 [1] = biological target: T1, Dipeptidyl peptidase 4 (Homo sapiens, UniProt P27487); assay: Inhibition of human DPP-4 assessed as cleavage of substrate using H-Gly-Pro-pNA chromogenic substrate after 10 mins by double beam spectrophotometer
Target sequence in this assay (P27487 whole entry): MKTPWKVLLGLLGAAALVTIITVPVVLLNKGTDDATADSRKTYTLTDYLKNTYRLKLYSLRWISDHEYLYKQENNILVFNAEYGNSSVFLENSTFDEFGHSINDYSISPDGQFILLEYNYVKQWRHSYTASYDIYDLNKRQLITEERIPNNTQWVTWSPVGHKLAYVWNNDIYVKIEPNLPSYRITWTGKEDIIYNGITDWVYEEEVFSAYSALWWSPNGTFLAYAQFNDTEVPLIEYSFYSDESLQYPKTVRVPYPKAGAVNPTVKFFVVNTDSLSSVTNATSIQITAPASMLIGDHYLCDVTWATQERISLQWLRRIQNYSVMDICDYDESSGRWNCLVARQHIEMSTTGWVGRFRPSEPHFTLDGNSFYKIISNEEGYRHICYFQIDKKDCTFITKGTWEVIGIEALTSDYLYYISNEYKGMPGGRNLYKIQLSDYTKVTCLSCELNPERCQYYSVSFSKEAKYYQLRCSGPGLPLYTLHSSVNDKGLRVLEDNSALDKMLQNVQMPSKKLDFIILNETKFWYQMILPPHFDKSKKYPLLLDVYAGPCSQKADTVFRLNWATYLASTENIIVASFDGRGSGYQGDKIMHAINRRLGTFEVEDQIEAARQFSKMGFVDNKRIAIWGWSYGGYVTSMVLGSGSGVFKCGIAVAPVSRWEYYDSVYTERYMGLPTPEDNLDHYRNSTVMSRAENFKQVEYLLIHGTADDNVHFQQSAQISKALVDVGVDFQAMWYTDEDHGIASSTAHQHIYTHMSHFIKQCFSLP

Dipeptidyl peptidase 4 [2] = biological target: T1, Dipeptidyl peptidase 4; assay: Inhibition of human DPP-4 assessed as cleavage of substrate using H-Gly-Pro-pNA chromogenic substrate at 10 uM after 10 mins by double beam spectrophotometer
Target sequence in this assay (P27487 whole entry, looked up): as the sequence (P27487 whole entry) above

Structure (SMILES)	IC50 (Dipeptidyl peptidase 4 [1]) [µM]	inhibition (Dipeptidyl peptidase 4 [2]) [%]
CCCN1C(c2ccc(C(C)C)cc2)CC(=O)[C@H]2C1C[C@H]1[C@@H]3CC=C4C[C@@H](O)CC[C@]4(C)[C@H]3CC[C@]21C (stereo not given in full)	29.1	19.1
CCCN1C(c2ccc(OC)cc2)CC(=O)[C@H]2C1C[C@H]1[C@@H]3CC=C4C[C@@H](O)CC[C@]4(C)[C@H]3CC[C@]21C (stereo not given in full)	32.7	20.4
CC(=O)O[C@H]1CC[C@@]2(C)C(=CC[C@@H]3[C@@H]2CC[C@]2(C)C(C(C)=O)=CC[C@@H]32)C1	35.6	17.3

Now those with a lower IC50 (Dipeptidyl peptidase 4 [1]), led by results:

IC50 (Dipeptidyl peptidase 4 [1]) [µM]	inhibition (Dipeptidyl peptidase 4 [2]) [%]	Structure (SMILES)
26.2	24.1	COc1ccc(/C=C/C(=O)C2=CC[C@H]3[C@@H]4CC=C5C[C@@H](O)CC[C@]5(C)[C@H]4CC[C@]23C)cc1OC
21.3	28.4	CC(=O)[C@H]1C(NCc2ccccc2)C[C@H]2[C@@H]3CC=C4C[C@@H](O)CC[C@]4(C)[C@H]3CC[C@]12C (stereo not given in full)
